Patent US20220289698A1, “INHIBITORS OF HUMAN ATGL” (Karl-Franzens-Universität Graz, priority 2019, published 2022)
Like-named read-outs stand apart in the source and are kept apart here.

What was measured:
human ATGL = biological target: T1, human ATGL (Homo sapiens, UniProt Q96AD5); assay: TG hydrolase activity, Expi cell lysates expressing human ATGL + CGI-58, radiolabelled triolein; format: biochemical
T1 construct: made in house; host or cells: Expi cells (lysate, not purified)
T1 sequence (Q96AD5 1-504): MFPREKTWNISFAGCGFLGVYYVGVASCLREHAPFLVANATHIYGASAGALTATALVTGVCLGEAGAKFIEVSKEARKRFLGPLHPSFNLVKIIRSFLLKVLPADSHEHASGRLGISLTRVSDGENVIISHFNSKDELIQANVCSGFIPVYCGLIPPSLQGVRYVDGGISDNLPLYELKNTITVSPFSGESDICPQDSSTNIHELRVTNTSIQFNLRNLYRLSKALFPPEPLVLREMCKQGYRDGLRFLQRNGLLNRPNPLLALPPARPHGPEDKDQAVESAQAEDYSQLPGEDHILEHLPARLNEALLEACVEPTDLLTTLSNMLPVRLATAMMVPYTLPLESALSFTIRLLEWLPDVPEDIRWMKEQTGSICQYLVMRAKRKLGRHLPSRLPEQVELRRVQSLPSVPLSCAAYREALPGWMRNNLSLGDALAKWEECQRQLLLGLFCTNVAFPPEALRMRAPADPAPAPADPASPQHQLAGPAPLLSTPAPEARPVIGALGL
How it was run: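 Lysates of Expi cells expressing ATGL, supplemented with purified CGI-58 and inhibitor in DMSO, incubated 1 h at 37 °C with emulsified radiolabelled triolein (330 μM) in potassium phosphate pH 7.0 with 5% FA-free BSA. Released FA counted by liquid scintillation after phase extraction; IC50 versus DMSO control, duplicates.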

murine ATGL = biological target: T2, murine ATGL (Mus musculus, UniProt Q8BJ56); assay: TG hydrolase activity, Expi lysates expressing mouse ATGL + CGI-58, radiolabelled triolein; format: biochemical
T2 construct: made in house; host or cells: Expi cells (lysate)
T2 sequence (Q8BJ56 1-486): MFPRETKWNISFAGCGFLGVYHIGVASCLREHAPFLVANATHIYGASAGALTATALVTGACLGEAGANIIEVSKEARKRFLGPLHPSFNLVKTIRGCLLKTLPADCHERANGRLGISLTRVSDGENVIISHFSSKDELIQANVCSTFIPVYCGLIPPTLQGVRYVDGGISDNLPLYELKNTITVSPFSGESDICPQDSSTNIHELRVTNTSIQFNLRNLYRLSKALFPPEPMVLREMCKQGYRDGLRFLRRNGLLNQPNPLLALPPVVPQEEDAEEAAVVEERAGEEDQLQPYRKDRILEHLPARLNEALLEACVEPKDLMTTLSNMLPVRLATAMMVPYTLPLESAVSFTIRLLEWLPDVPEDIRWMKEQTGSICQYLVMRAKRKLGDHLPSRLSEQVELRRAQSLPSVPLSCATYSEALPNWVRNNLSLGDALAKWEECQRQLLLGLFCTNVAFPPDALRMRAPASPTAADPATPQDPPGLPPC
Protocol: Triglyceride (TG) hydrolase activity was measured as previously described (Schweiger M et al., Methods in Enzymology, 2014, 538:171-93). In brief, TG hydrolase activity was determined by adding recombinant purified CGI-58 to Expi cell lysates expressing human ATGL. For determination of cross-species reactivity Expi lysates expressing ATGL from different model organisms (e.g. mouse, rat, rhesus monkey, goat, etc.) were used. Samples were incubated with DMSO (carrier) or increasing concentrations of ATGL inhibitors dissolved in DMSO. TG substrate was prepared by emulsifying 330 μM radiolabelled triolein (40,000 c.p.m./nmol) and 45 μM phosphatidylcholine/phosphatidylinositol (3:1) in 100 mM potassium phosphate buffer (pH 7.0) by sonication and adjusting to 5% essentially FA-free BSA. TG substrate was added to the reaction mixture and incubated for 1 h at 37° C. in the water bath. The reaction was terminated by adding methanol/chloroform/heptane (10:9:7) and 0.1 M potassium carbonate with 0.1 M boric acid (pH 10.5). After centrifugation at 800 g for 15 min the radioactivity in the upper phase was determined by liquid scintillation counting and the rate of FA hydrolysis was calculated. IC50 values were determined as inhibitor concentration capable of inhibiting TG hydrolase activity by 50% as compared to DMSO control. Samples were measured as duplicates. The determination of IC50 values for human ATGL is illustrated in FIG. 1.
Lysates from Expi cells overexpressing ATGL from mouse (Mus musculus) were incubated with recombinant purified ATGL co-activator CGI-58 and ATGL inhibitors at 50 μM. Subsequently, substrate containing radiolabeled triolein was added and liberated FA were extracted and quantified by liquid scintillation. Inhibitors were dissolved in DMSO which was used as control. Samples were measured in triplicates.

[1] = Example 237, read-out: Inhibition of human ATGL − IC50
[2] = Example 238, read-out: Inhibition of human ATGL IC50
[3] = 50 μM compound, Example 237, read-out: Inhibition of murine ATGL at 50 μM − mean [%]

| Compound | melting point | IC50 (human ATGL; [1]) | IC50 (human ATGL; [2]) | inhibition at 50 µM (murine ATGL; [3]) | inhibition at 50 µM (murine ATGL; 50 μM, Example 238, read-out: % Inhibition of murine ATGL at 50 μM) | IC50 (human ATGL; values of text and figure legend, read-out: IC50 on human ATGL (hATGL)) |
| --- | --- | --- | --- | --- | --- | --- |
| CCOc1ccc(-c2cccc(C(=O)OCc3ccsc3)n2)cc1 [Example 197, Thiophen-3-ylmethyl 6-(4-ethoxyphenyl)picolinate] | 90 to 93 °C | – | 30 µM | – | 75% | – |
| C#CCOC(=O)c1cccc(-c2ccc(OCC)cc2)n1 [Example 51] | 76 to 78 °C | 15 µM | – | 31.8% | – | – |
| CC(C)OC(=O)c1cccc(-c2ccc(-c3nc4ccccc4n3-c3ccccc3)cc2)n1 [Example 84] | 172 to 176 °C | 10 µM | – | 0% | – | – |
| CCOC(=O)c1csc(-c2ccc(OCc3ccccc3)cc2)n1 [Example 187, Ethyl 2-(4-(benzyloxy)phenyl)thiazole-4-carboxylate] | 112 to 115 °C | 15 µM | – | 10.2% | – | – |
| CC(C)OC(=O)c1cccc(-c2ccc(C#Cc3ccccc3)cc2)n1 [Example 63] | 136 to 143 °C | 6 µM | – | – | – | – |
| CC(C)OC(=O)c1cccc(-c2ccc(CCc3ccccc3)cc2)n1 [Example 67] | 88 to 89 °C | 2 µM | – | – | – | – |
| CC(C)OC(=O)c1cccc(-c2ccc(OC3CCCCO3)cc2)n1 (centres unmarked) [Example 36] | 105 to 107 °C | 8 µM | – | 9.6% | – | – |
| CC(C)OC(=O)c1cccc(/C=C/c2ccccc2)n1 [Example 76] | 66 to 71 °C | 10 µM | – | 5.1% | – | – |
| CCOc1ccc(-c2cccc(C(=O)OC3CC3)n2)cc1 [Example 21] | 114 to 115 °C | 5 µM | – | 0% | – | – |
| CCOc1ccc(-c2cccc(C(=O)OC/C=C/c3ccccc3)n2)cc1 [Example 73] | 110 °C | 3 µM | – | – | – | – |
| CCCc1ccc(-c2cccc(C(=O)OCC)n2)cc1 [Example 66] | 68 to 69 °C | 10 µM | – | – | – | – |
| C#C[C@@H](C)OC(=O)c1cccc(-c2ccc(CCC)cc2)n1 [Example 71] | 112 to 113 °C | 2 µM | – | – | – | – |
| CCOC(=O)c1cccc(-c2ccc(-c3cccnc3)cc2)n1 [Example 49] | 84 to 104 °C | 20 µM | – | – | – | – |
| CCOC(=O)c1cccc(-c2ccc(-c3ccccn3)cc2)n1 [Example 48] | 130 to 132 °C | 25 µM | – | – | – | – |
| CCOC(=O)c1cccc(-c2ccc(OCc3ccccc3)cc2)n1 [Example 9] | 143 to 145 °C | – | – | – | – | – |
| CCOC(=O)c1csc(-c2ccc(C(C)(C)C)cc2)n1 [Example 186, Ethyl 2-(4-(tert-butyl)phenyl)thiazole-4-carboxylate] | 50 to 52 °C | – | – | – | – | – |
| CCOC(=O)c1cccc(-c2ccc(C(F)(F)F)cc2)n1 [Example 81] | 110 to 112 °C | – | – | – | – | – |
| CCOC(=O)c1ccc(-c2ccc(OCC)cc2)nc1 [NG-408] | 106 to 108 °C | – | – | – | – | – |
| CCOC(=O)c1csc(-c2ccc(C)cc2)n1 [Example 184, Ethyl 2-(p-tolyl)thiazole-4-carboxylate] | 39 to 41 °C | – | – | – | – | – |

Second part, the compound after the results:

| melting point | IC50 (human ATGL; [1]) | IC50 (human ATGL; [2]) | inhibition at 50 µM (murine ATGL; [3]) | inhibition at 50 µM (murine ATGL; 50 μM, Example 238, read-out: % Inhibition of murine ATGL at 50 μM) | IC50 (human ATGL; values of text and figure legend, read-out: IC50 on human ATGL (hATGL)) | Compound |
| --- | --- | --- | --- | --- | --- | --- |
| 60 to 61 °C | 3 µM | – | – | – | – | CSc1ccc(-c2cccc(C(=O)OC(C)C)n2)cc1 [Example 90] |
| 68 °C | – | 3 µM | – | – | – | CCC(C)OC(=O)c1cc(OC)cc(-c2ccc(OC(C)C)cc2)n1 (centres unmarked) [Example 202, sec-Butyl 6-(4-Isopropoxyphenyl)-4-methoxypicolinate] |
| 80 to 84 °C | 12 µM | – | 6% | – | – | CCCOC(=O)c1cccc(-c2ccc(OCC)cc2)n1 [Example 31] |
| 116 to 118 °C | – | 10 µM | – | – | – | COc1cc(C(=O)OC2CCC2)nc(-c2ccc(OC(C)C)cc2)c1 [Example 203, Cyclobutyl 6-(4-isopropoxyphenyl)-4-methoxypicolinate] |
| 70 to 75 °C | 5 µM | – | 5.7% | – | – | CC(C)OC(=O)c1cccc(-c2ccc(OCC(F)(F)F)cc2)n1 [Example 38] |
| 55 to 56 °C | 7 µM | – | 0% | – | – | COc1cc(C(=O)OC(C)C)nc(-c2ccc(C(F)(F)F)cc2)c1 [Example 58] |
| 69 to 73 °C | 12 µM | – | 0% | – | – | CCOc1ccc(-c2cccc(C(=O)OC(C)(C)C)n2)cc1 [Example 28] |
| 63 to 65 °C | 3 µM | – | 0% | – | – | CCCCCOc1ccc(-c2cccc(C(=O)OC(C)C)n2)cc1 [Example 85] |
| 78 to 81 °C | 20 µM | – | 5.9% | – | – | CCCCOC(=O)c1cccc(-c2ccc(OCC)cc2)n1 [Example 2] |
| 90 to 93 °C | 3 µM | – | 0% | – | – | CCCOc1ccc(-c2cccc(C(=O)OC(C)C)n2)cc1 [Example 27] |
| 79 to 81 °C | 3 µM | – | – | – | – | CCCOc1ccc(-c2cc(OC)cc(C(=O)OC(C)C)n2)cc1 [Example 59] |
| 65 to 68 °C | 10 µM | – | – | – | – | COCc1ccc(-c2cc(OC)cc(C(=O)OC)n2)cc1 [Example 40] |
| 59 to 61 °C | – | 5 µM | – | – | – | COc1ccc(-c2cc(OC)cc(C(=O)OC(C)C)n2)cc1 [Example 206, Isopropyl 4-methoxy-6-(4-methoxyphenyl)picolinate] |
| 103 to 107 °C | 10 µM | – | – | – | – | CC(C)COc1ccc(-c2cccc(C(=O)OC(C)C)n2)cc1 [Example 96] |
| 85 to 88 °C | – | – | – | – | 4 µM | CCOc1ccc(-c2cc(C)cc(C(=O)OC(C)C)n2)cc1 [Example 20] |
| 93 to 96 °C | 6 µM | – | – | – | – | CCSc1ccc(-c2cccc(C(=O)OC(C)C)n2)cc1 [Example 64] |
| 51 °C | – | 3 µM | – | – | – | CCc1ccc(-c2cc(OC)cc(C(=O)OC(C)C)n2)cc1 [Example 205, Isopropyl 6-(4-ethylphenyl)-4-methoxypicolinate] |
| 48 to 51 °C | – | – | – | – | – | CCCCCCOC(=O)c1cccc(-c2ccc(OCC)cc2)n1 [Example 7] |
| 152 to 155 °C | 3 µM | – | – | – | – | COc1ccc(C#Cc2ccc(-c3cccc(C(=O)OC(C)C)n3)cc2)cc1 [Example 92] |
| 114 to 116 °C | – | – | – | – | – | CCOc1ccc(-c2ccc(OC)c(C(=O)OC)n2)cc1 [NG-462] |
| 70 to 72 °C | – | 1 µM | – | – | – | [2H]C([2H])([2H])C([2H])(OC(=O)c1cc(OC)cc(-c2ccc(OC(C)C)cc2)n1)C([2H])([2H])[2H] [Example 204, Propan-2-yl-d7 6-(4-isopropoxyphenyl)-4-methoxypicolinate] |
| 118 to 121 °C | 6 µM | – | – | – | – | COc1cc(C(=O)OC(C)C)nc(-c2ccc(-c3cccnc3)cc2)c1 [Example 65] |
